Experimental data reported in patent US20220380368A1, “SPIROCYCLIC ANDROGEN RECEPTOR PROTEIN DEGRADERS” (THE REGENTS OF THE UNIVERSITY OF MICHIGAN, priority 2019, published 2022).

The molecules below were run against T1, AR protein (Homo sapiens, UniProt P10275) (assay: Western blotting analysis of AR protein levels in VCaP cells, band quantification, DC50/DC90). Conditions: VCaP cells, Table 6; read-out: VCaP DC50.
T1 construct: endogenous in cells; host or cells: VCaP
T1 sequence (P10275 1-920): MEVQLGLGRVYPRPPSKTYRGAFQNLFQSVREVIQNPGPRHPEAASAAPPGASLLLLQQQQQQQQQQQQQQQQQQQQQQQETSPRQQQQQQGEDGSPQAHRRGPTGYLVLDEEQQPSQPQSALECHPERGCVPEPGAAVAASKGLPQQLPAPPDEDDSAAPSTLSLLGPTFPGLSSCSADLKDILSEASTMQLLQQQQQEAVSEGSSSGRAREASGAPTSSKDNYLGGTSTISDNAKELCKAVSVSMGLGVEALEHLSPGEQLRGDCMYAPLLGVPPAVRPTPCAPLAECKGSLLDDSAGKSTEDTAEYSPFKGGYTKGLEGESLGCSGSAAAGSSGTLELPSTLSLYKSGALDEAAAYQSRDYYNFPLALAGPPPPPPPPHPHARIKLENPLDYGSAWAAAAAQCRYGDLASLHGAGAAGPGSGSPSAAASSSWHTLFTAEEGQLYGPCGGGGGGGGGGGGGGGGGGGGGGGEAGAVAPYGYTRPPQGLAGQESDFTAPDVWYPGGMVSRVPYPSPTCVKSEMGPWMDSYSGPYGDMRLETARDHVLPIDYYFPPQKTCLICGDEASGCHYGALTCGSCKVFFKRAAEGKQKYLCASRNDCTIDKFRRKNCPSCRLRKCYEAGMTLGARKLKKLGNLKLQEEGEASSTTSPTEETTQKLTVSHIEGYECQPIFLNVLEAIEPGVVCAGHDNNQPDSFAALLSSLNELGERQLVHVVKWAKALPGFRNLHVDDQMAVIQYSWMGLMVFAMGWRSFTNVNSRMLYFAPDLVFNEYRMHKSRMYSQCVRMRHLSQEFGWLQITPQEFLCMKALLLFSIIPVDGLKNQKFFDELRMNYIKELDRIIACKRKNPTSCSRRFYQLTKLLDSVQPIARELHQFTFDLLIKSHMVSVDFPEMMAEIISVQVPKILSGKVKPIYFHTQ
Type: cell-based
Protocol: The appropriate cell line, e.g., prostate cancer LNCaP, Vcap, or 22RV1 cell line, was treated with Compounds of the Disclosure as indicated. The treated cells were lysed with RIPA buffer. […] GAPDH was used as a loading control.
Bands were quantified with ImageJ software. The relative numbers of each band obtained from normalization with its corresponding GAPDH level were compared with Prism 8 software. The DC50 values were produced from Prism 8, and the DC90 values were calculated with an equation=Bottom+(Top−Bottom)/(1+10^((Log EC50−X)*HillSlope) based on DC50 and Hillslope values.

Q: For `C[C@H]1CC2(CCN(c3ccc(C(=O)N4CCN(CC5CN(c6cc7c(cc6F)C(=O)N(C6CCC(=O)NC6=O)C7=O)C5)CC4)cc3F)CC2)CN1c1ccc(C#N)c(Cl)c1` (stereo partly drawn) [Cpd. No. 533, 2-chloro-4-((3S)-8-(4-(4-((1-(2-(2,6-dioxopiperidin-3-yl)-6-fluoro-1,3-dioxoisoindolin-5-yl)azetidin-3-yl)methyl)piperazine-1-carbonyl)-2-fluorophenyl)-3-methyl-2,8-diazaspiro[4.5]decan-2-yl)benzonitrile], which DC50 is on record?
A: < 1 nM

Q: With `C[C@H]1CC2(CCN(c3ncc(C(=O)N4CCC(CN5Cc6cc7c(cc6C5)C(=O)N(C5CCC(=O)NC5=O)C7=O)CC4)cn3)CC2)CN1c1ccc(C#N)c(Cl)c1` (stereo partly drawn) [Cpd. No. 526, 2-chloro-4-((3S)-8-(5-(4-((6-(2,6-dioxopiperidin-3-yl)-5,7-dioxo-3,5,6,7-tetrahydropyrrolo[3,4-f]isoindol-2(1H)-yl)methyl)piperidine-1-carbonyl)pyrimidin-2-yl)-3-methyl-2,8-diazaspiro[4.5]decan-2-yl)benzonitrile] as the molecule, how does the DC50 read?
A: < 1 nM

Q: With `C[C@H]1CC2(CCN(c3ccc(C(=O)N4CCN(C5CCN(c6ccc7c(c6)C(=O)N(C6CCC(=O)NC6=O)C7=O)CC5)CC4)cc3F)CC2)CN1c1ccc(C#N)c(Cl)c1` (stereo partly drawn) [Cpd. No. 520, 2-chloro-4-((3S)-8-(4-(4-(1-(2-(2,6-dioxopiperidin-3-yl)-1,3-dioxoisoindolin-5-yl)piperidin-4-yl)piperazine-1-carbonyl)-2-fluorophenyl)-3-methyl-2,8-diazaspiro[4.5]decan-2-yl)benzonitrile] as the molecule, how does the DC50 read?
A: < 1 nM

Q: `C[C@H]1CC2(CCN(c3ccc(C(=O)N4CC[C@@H](N5CCN(c6cc7c(cc6F)C(=O)N(C6CCC(=O)NC6=O)C7=O)CC5)C4)cc3)CC2)CN1c1ccc(C#N)c(Cl)c1` (stereo partly drawn) [Cpd. No. 515, 2-chloro-4-((3S)-8-(4-((3R)-3-(4-(2-(2,6-dioxopiperidin-3-yl)-6-fluoro-1,3-dioxoisoindolin-5-yl)piperazin-1-yl)pyrrolidine-1-carbonyl)phenyl)-3-methyl-2,8-diazaspiro[4.5]decan-2-yl)benzonitrile] was tested. Which DC50 did it give?
A: 10 to 100 nM

Q: With `C[C@H]1CC2(CCN(c3ccc(C(=O)N4CCN(C5CCN(c6ccc7c(c6)C(=O)N(C6CCC(=O)NC6=O)C7=O)CC5)CC4)cn3)CC2)CN1c1ccc(C#N)c(Cl)c1` (stereo partly drawn) [Cpd. No. 508, 2-chloro-4-((3S)-8-(5-(4-(1-(2-(2,6-dioxopiperidin-3-yl)-1,3-dioxoisoindolin-5-yl)piperidin-4-yl)piperazine-1-carbonyl)pyridin-2-yl)-3-methyl-2,8-diazaspiro[4.5]decan-2-yl)benzonitrile] as the molecule, how does the DC50 read?
A: < 1 nM

Q: Which DC50 does the source give for `C[C@H]1CC2(CCN(c3ccc(C(=O)N4CCC(CN5Cc6cc7c(cc6C5)C(=O)N(C5CCC(=O)NC5=O)C7=O)CC4)cc3F)CC2)CN1c1ccc(C#N)c(Cl)c1` (stereo partly drawn) [Cpd. No. 527, 2-chloro-4-((3S)-8-(4-(4-((6-(2,6-dioxopiperidin-3-yl)-5,7-dioxo-3,5,6,7-tetrahydropyrrolo[3,4-f]isoindol-2(1H)-yl)methyl)piperidine-1-carbonyl)-2-fluorophenyl)-3-methyl-2,8-diazaspiro[4.5]decan-2-yl)benzonitrile] here?
A: < 1 nM

Q: Which DC50 does the source give for `C[C@H]1CC2(CCN(c3ccc(C(=O)N4CC[C@@H](N5CCN(c6cc7c(cc6F)C(=O)N(C6CCC(=O)NC6=O)C7=O)CC5)C4)cc3)CC2)CN1c1ccc(C#N)c(Cl)c1` (stereo partly drawn) [Cpd. No. 517, 2-chloro-4-((3S)-8-(4-((3R)-3-(4-(2-(2,6-dioxopiperidin-3-yl)-6-fluoro-1,3-dioxoisoindolin-5-yl)piperazin-1-yl)pyrrolidine-1-carbonyl)phenyl)-3-methyl-2,8-diazaspiro[4.5]decan-2-yl)benzonitrile] here?
A: 1 to 10 nM

Q: Which DC50 does the source give for `C[C@H]1CC2(CCN(c3ncc(C(=O)N4CCC(N5CCN(c6ccc7c(c6)C(=O)N(C6CCC(=O)NC6=O)C7=O)CC5)CC4)cn3)CC2)CN1c1ccc(C#N)c(Cl)c1` (stereo partly drawn) [Cpd. No. 514, 2-chloro-4-((3S)-8-(5-(4-(4-(2-(2,6-dioxopiperidin-3-yl)-1,3-dioxoisoindolin-5-yl)piperazin-1-yl)piperidine-1-carbonyl)pyrimidin-2-yl)-3-methyl-2,8-diazaspiro[4.5]decan-2-yl)benzonitrile] here?
A: < 1 nM

Q: For `C[C@H]1CC2(CCN(c3ncc(C(=O)N4CCN(C5CCN(c6cc7c(cc6F)C(=O)N(C6CCC(=O)NC6=O)C7=O)CC5)CC4)cn3)CC2)CN1c1ccc(C#N)c(Cl)c1` (stereo partly drawn) [Cpd. No. 524, 2-chloro-4-((3S)-8-(5-(4-(1-(2-(2,6-dioxopiperidin-3-yl)-6-fluoro-1,3-dioxoisoindolin-5-yl)piperidin-4-yl)piperazine-1-carbonyl)pyrimidin-2-yl)-3-methyl-2,8-diazaspiro[4.5]decan-2-yl)benzonitrile], which DC50 is on record?
A: < 1 nM

Q: For `C[C@H]1CC2(CCN(c3ncc(C(=O)N4CCC(N5CCN(c6cc7c(cc6F)C(=O)N(C6CCC(=O)NC6=O)C7=O)CC5)CC4)cn3)CC2)CN1c1ccc(C#N)c(Cl)c1` (stereo partly drawn) [Cpd. No. 525, 2-chloro-4-((3S)-8-(5-(4-(4-(2-(2,6-dioxopiperidin-3-yl)-6-fluoro-1,3-dioxoisoindolin-5-yl)piperazin-1-yl)piperidine-1-carbonyl)pyrimidin-2-yl)-3-methyl-2,8-diazaspiro[4.5]decan-2-yl)benzonitrile], which DC50 is on record?
A: < 1 nM

Q: With `C[C@H]1CC2(CCN(c3ccc(C(=O)N4CCN(C5CCN(c6ccc7c(c6)C(=O)N(C6CCC(=O)NC6=O)C7=O)CC5)CC4)cc3F)CC2)CN1c1ccc(C#N)c(Cl)c1` (stereo partly drawn) [Cpd. No. 519, 2-chloro-4-((3S)-8-(4-(4-(1-(2-(2,6-dioxopiperidin-3-yl)-1,3-dioxoisoindolin-5-yl)piperidin-4-yl)piperazine-1-carbonyl)-2-fluorophenyl)-3-methyl-2,8-diazaspiro[4.5]decan-2-yl)benzonitrile] as the molecule, how does the DC50 read?
A: < 1 nM

Q: `C[C@H]1CC2(CCN(c3ccc(C(=O)N4CCN(C5CCN(c6ccc7c(c6)C(=O)N(C6CCC(=O)NC6=O)C7=O)CC5)CC4)cn3)CC2)CN1c1ccc(C#N)c(Cl)c1` (stereo partly drawn) [Cpd. No. 509, 2-chloro-4-((3S)-8-(5-(4-(1-(2-(2,6-dioxopiperidin-3-yl)-1,3-dioxoisoindolin-5-yl)piperidin-4-yl)piperazine-1-carbonyl)pyridin-2-yl)-3-methyl-2,8-diazaspiro[4.5]decan-2-yl)benzonitrile] was tested. Which DC50 did it give?
A: < 1 nM

Q: For `C[C@H]1CC2(CCN(c3ncc(C(=O)N4CCN(C5CN(c6cc7c(cc6F)C(=O)N(C6CCC(=O)NC6=O)C7=O)C5)CC4)cn3)CC2)CN1c1ccc(C#N)c(Cl)c1` (stereo partly drawn) [Cpd. No. 523, 2-chloro-4-((3S)-8-(5-(4-(1-(2-(2,6-dioxopiperidin-3-yl)-6-fluoro-1,3-dioxoisoindolin-5-yl)azetidin-3-yl)piperazine-1-carbonyl)pyrimidin-2-yl)-3-methyl-2,8-diazaspiro[4.5]decan-2-yl)benzonitrile], which DC50 is on record?
A: < 1 nM

Same assay, conditions: read-out: VCaP DC50; VCaP cells, Table 6

Q: For `C[C@H]1CC2(CCN(c3ccc(C(=O)N4CCN(C5CN(c6cc7c(cc6F)C(=O)N(C6CCC(=O)NC6=O)C7=O)C5)CC4)cn3)CC2)CN1c1ccc(C#N)c(Cl)c1` (stereo partly drawn) [Cpd. No. 505, 2-chloro-4-((3S)-8-(5-(4-(1-(2-(2,6-dioxopiperidin-3-yl)-6-fluoro-1,3-dioxoisoindolin-5-yl)azetidin-3-yl)piperazine-1-carbonyl)pyridin-2-yl)-3-methyl-2,8-diazaspiro[4.5]decan-2-yl)benzonitrile], which DC50 is on record?
A: < 1 nM
